The text below walks through data of patent US7732430B2, “Drug delivery system comprising a tetrahydroxilated estrogen for use in hormonal contraception” (Pantarhei Bioscience B.V., priority 2001, dated 2010).

For data set [1], the target named is T1, human sex Hormone Binding Globulin (SHBG) (Homo sapiens, UniProt P04278).
T1 construct: Human SHBG was purified from transgenic mouse serum; made in house; host or cells: transgenic mouse (serum)
T1 sequence (P04278 30-402): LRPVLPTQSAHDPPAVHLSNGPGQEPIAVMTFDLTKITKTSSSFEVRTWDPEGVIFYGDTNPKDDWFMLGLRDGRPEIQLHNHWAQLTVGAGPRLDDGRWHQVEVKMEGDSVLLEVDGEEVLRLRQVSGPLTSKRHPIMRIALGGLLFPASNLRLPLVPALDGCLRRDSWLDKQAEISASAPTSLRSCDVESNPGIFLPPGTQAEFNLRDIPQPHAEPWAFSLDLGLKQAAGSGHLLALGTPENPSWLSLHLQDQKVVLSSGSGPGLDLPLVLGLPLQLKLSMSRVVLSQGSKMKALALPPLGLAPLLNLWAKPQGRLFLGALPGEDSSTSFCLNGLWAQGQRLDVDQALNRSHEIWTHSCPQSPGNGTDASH
Briefly: Competitive steroid-binding assay for human SHBG. To be noted: for relative binding affinity for human SHBG: rank order ethinylestradiol < 17β-estradiol < testosterone < 5α-dihydrotestosterone. How it is done: Human SHBG was treated for 30 min at room temperature with a dextran-coated charcoal (DCC) suspension in phosphate buffered saline (PBS) to remove any steroid ligand. After centrifugation (2,000×g for 10 min) to sediment the DCC, the supernatant containing the human SHBG was diluted in PBS to a concentration of 1 nM based on its steroid binding capacity.
The average amounts of [^3H]labeled ligands bound to SHBG at each concentration of competitor (B) were expressed as a percentage of the average amounts of [^3H]labeled ligands bound to SHBG in the absence of competitor (B0), and were plotted against the concentration of competitor in each assay tube.

For the next data set, the system named is four-day cyclic rats. In words: Antiovulatory bioassay after oral administration. To be noted: for ED50: Rattus norvegicus, 96 h. The data set is classed as in vivo, rat. The procedure:
A bioassay method (modified according to De Visser et al., 1984, Arzneim. […].
Rats are spontaneously ovulating, polyestrous mammals. Generally, proestrus lasts for 12 to 14 hours, estrus for 25 to 27 hours, metestrus for 6 to 8 hours, and diestrus for 55 to 57 hours (Freeman, 1988, In: The Physiology of Reproduction, E Knobil and J Neill (eds). Raven Press, Ltd, New York, pp. 1893-1928). These stages of the estrous cycle can be classified based on the cell types present in daily vaginal smears (Schwartz, 1969, Recent Prog. Horm. Res. 25, 1-55).
The preovulatory period of the rat estrous cycle is characterized by ovarian follicular growth and enhanced estrogen secretion. In the four-day cyclic rat, peripheral plasma levels of E2 are basal through estrus. At the end of metestrus and extending through early diestrus, plasma levels of E2 begin to rise. This increase continues through diestrus and early proestrus to reach peak values and plateau by mid-proestrus. Subsequently, E2 levels fall rapidly, reaching basal values by the early morning hours of estrus. The rising estrogen levels from late metestrus to early proestrus exert a positive feedback effect on the hypothalamic-pituitary axis resulting in a luteinizing hormone (LH) surge on the afternoon of proestrus. The LH surge induces follicular rupture and the release of ova in the early morning hours of estrus. By early afternoon on the day of estrus, ova are present in the ampulla of the oviduct and are readily visualized under a dissecting microscope.
Progesterone or levonorgestrel administered subcutaneously on diestrus to four-day cyclic rats is known to inhibit ovulation and increased the estrous cycle length in a dose-dependent manner (Beattie and Corbin, 1975, Endocrinology 97, 885-890). It was shown that the progestational block of ovulation takes place predominately via the hypothalamic-pituitary axis.
Vaginal smears from female rats were obtained daily for two weeks to identify four-day cycling rats. Only four-day cyclic rats were used for the antiovulatory bioassay. […] Twice daily dosing continued for an additional 3 consecutive days. One day after the final dose (day 5), the rats were euthanized by CO2 asphyxiation at approximately 1 pm, and the number of ova per oviduct was determined and recorded. Group means were calculated for the number of ova per ovulated rat (both oviducts). The ratio of rats ovulating for each treatment group was compared to the ratio for the vehicle-treated rats.

The conditions of data set [2]: intravenous, two adult women, tritium labeled; cited from earlier work.
For data set [3], the target named is T2, rat uterine cytosol estrogen receptor (Rattus norvegicus, UniProt P06211).
T2 construct: rat uterine cytosol estrogen receptor; host or cells: rat uterus (cytosol and nuclear fractions)
T2 sequence (P06211 1-600): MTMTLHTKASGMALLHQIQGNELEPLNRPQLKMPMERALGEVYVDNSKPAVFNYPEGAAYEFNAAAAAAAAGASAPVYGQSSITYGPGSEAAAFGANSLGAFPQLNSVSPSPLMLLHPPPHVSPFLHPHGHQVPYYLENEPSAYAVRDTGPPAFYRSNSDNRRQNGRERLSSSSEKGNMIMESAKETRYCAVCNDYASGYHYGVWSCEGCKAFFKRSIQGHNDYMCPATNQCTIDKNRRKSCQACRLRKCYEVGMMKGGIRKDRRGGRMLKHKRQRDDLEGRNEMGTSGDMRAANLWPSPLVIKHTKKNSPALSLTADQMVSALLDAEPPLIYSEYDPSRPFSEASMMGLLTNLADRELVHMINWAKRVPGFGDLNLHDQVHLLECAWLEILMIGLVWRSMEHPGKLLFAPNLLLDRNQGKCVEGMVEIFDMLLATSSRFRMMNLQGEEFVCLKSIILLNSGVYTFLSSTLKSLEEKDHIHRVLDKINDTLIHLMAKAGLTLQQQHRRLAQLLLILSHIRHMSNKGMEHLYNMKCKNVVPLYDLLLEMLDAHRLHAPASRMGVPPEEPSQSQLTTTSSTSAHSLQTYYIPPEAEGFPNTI
To be noted: cited from earlier work.

Data set [4] addresses T3, estrogen receptors in the human endometrium (Homo sapiens, UniProt P03372).
T3 construct: estrogen receptors in the human endometrium; host or cells: human endometrium (nuclei)
T3 sequence (P03372 1-595): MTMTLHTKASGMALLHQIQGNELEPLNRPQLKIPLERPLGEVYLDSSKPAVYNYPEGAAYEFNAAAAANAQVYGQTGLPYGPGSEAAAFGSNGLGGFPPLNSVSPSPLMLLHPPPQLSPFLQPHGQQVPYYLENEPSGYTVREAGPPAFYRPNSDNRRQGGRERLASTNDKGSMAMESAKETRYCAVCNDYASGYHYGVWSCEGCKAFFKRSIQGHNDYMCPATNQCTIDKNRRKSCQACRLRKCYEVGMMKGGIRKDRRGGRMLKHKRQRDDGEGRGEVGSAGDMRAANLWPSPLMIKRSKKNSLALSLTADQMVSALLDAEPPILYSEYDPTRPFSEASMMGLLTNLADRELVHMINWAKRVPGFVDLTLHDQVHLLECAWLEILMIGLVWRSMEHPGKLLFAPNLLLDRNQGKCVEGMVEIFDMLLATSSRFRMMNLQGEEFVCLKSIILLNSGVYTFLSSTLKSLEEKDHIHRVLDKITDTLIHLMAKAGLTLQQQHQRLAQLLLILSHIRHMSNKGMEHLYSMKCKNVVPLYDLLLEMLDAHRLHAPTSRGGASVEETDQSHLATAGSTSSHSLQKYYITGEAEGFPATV
To be noted: Tseng et al. 1978; cited from earlier work.

The target of data set [5] is T4, rat uterine nuclear estrogen receptor (Rattus norvegicus, UniProt P06211).
T4 construct: rat uterine cytosol estrogen receptor; host or cells: rat uterus (cytosol and nuclear fractions)
T4 sequence (P06211 1-600): T2 sequence (P06211 1-600)
The settings on record: cited from earlier work.

The test system of another data set is immature rat uterus. The settings on record: subcutaneous, cited from earlier work.
For data set [6], the system named is human breast cancer cells (MCF-7). The settings on record: MCF-7, long term tissue culture; cited from earlier work.
The test system of data set [7] is ovariectomized adult rats. Briefly: Vaginal cornification bioassay after oral administration. The data set is classed as in vivo, rat. The settings on record: 0.1 and 0.3 mg/kg/day po. The text has this:
Uterine weight increase in the rat is more commonly used as a measure of estrogenicity. […] In the early 1920s it was discovered that follicular fluid from the pig ovary contained a factor(s) that caused cornification/keratinization of the vaginal epithelium in the rat (Allen and Doisy, 1923, JAMA, 81, 819-821; Allen and Doisy, 1924, Am. J. Physiol., 69, 577-588). The so-called vaginal cornification response in rats subsequently provided a bioassay for testing estrogenicity. Vaginal epithelial cornification/keratinization in ovariectomized rats can be produced only by compounds considered to be true estrogens (Jones et al, 1973, Fert. Steril. 24, 284-291). […] Adult intact female CD rats were ovariectomized to induce estrogen deficiency. […] Castrate vaginal smears are indicative that complete ovariectomy was achieved. Treatment commenced following completion of the 7 days of smearing (day 0=first day of dosing). Animals were dosed, once daily for 7 consecutive days. Daily vaginal lavages continued to be obtained for 7 days after dosing was initiated in order to detect vaginal cornification, as an indication of an estrogenic response. A drop of vaginal washings was placed on a glass slide and examined by light microscopy to detect the presence or absence of cornified epithelial cells. Vaginal lavages were obtained prior to dosing on days 0-6 and prior to necropsy on day 7. […]

The next data set deals with nonpregnant ewes. To be noted: intravenously administered; cited from earlier work.
Where [8] appears, read: 30 μg/kg po twice daily for 4 days.
Where [9] appears, read: 100 μg/kg po twice daily for 4 days.
Setting [10] is: 300 μg/kg po twice daily for 4 days.
Where [11] appears, read: 1000 μg/kg po twice daily for 4 days.
[12] abbreviates: 3000 μg/kg po twice daily for 4 days.

Molecules are shown by their SMILES. Where two headings read alike, the source gives them in different places.

For the compound `C[C@]12CCC(=O)C[C@@H]1CC[C@@H]1[C@@H]2CC[C@]2(C)[C@@H](O)CC[C@@H]12` [5α-dihydrotestosterone, reference compound], the “relative binding affinity for human SHBG” value in data set [1] is “in this order, show an increased relative binding affinity”.

Regarding `C[C@]12CC[C@@H]3c4ccc(O)cc4CC[C@H]3[C@@H]1CC[C@@H]2O` [E2, 17β-estradiol, reference compound], the “ovulation blocked (rats of 8)” value is listed as “ineffective in inhibiting ovulation” with four-day cyclic rats (setting [8]); 7 of 8 in the data set with four-day cyclic rats (setting [9]); 8 of 8 in the data set on four-day cyclic rats (setting [10]); 8 of 8 with four-day cyclic rats (setting [11]); 8 of 8 with four-day cyclic rats (setting [12]). The compound also yielded a 50% effective dose (ED50) with four-day cyclic rats (po twice daily for 4 days) of 0.03 to 0.1 mg/kg.

As for `C#C[C@]1(O)CC[C@H]2[C@@H]3CCc4cc(O)ccc4[C@H]3CC[C@@]21C` [EE, 17α-ethinyl estradiol, reference compound], the ED50 in the data set on four-day cyclic rats (po twice daily for 4 days) amounted to 0.01 mg/kg.

Consider `C[C@]12CC[C@@H]3c4ccc(O)cc4CC[C@H]3[C@@H]1[C@@H](O)[C@@H](O)[C@@H]2O` [estetrol, 1,3,5(10)-estratrien-3,15α,16α,17β-tetrol], for which the excretion result in data set [2] was “rapidly and completely excreted in urine as the glucosiduronate”. In data set [2], the metabolism entry is on record as “virtually no metabolism except for conjugation”. In addition, the “relative binding affinity, 17β-estradiol = 100%” value is listed as 0.5% in [3] and 0.3% in data set [5]. Moreover, in data set [4], the “relative binding, % of 17β-estradiol” value is on record as 1.5%. For the same compound, the uterotrophic activity result with immature rat uterus (Holinka et al. 1979) and in the data set on immature rat uterus (Holinka et al. 1980) was “very weak uterotrophic activity” each time. Also, the “agonistic potency relative to 17β-estradiol in cell proliferation” value in data set [6] is listed as 2%. The “onset of vaginal cornification (animals responding at days 1-3)” value in data set [7] was “as fast as in EE-treated animals”. Further, the “ovulation blocked (rats of 8)” value in the data set on four-day cyclic rats (setting [8]) is recorded as “failed to inhibit ovulation”; with four-day cyclic rats (setting [9]), 2 of 8; in the data set with four-day cyclic rats (setting [10]), 5 of 8; in the data set on four-day cyclic rats (setting [11]) it was 7 of 8; in the data set with four-day cyclic rats (setting [12]), 8 of 8. In addition, the ED50 with four-day cyclic rats (po twice daily for 4 days) is 0.182 mg/kg. Besides, in the data set with four-day cyclic rats (po twice daily for 4 days), the “antiovulatory potency compared with E2” value is recorded as “approximates the antiovulatory potency of E2”. The “antiovulatory potency, times less potent than ethinylestradiol” value in the data set on four-day cyclic rats (po twice daily for 4 days) is given as 18 times. The “binding to human SHBG” value in [1] ([3H]DHT as labeled ligand) and in data set [1] ([3H]estradiol as labeled ligand) was “does not bind at all” throughout. For the same compound, in data set [1], the “relative binding affinity for human SHBG” value is recorded as “negligible”. In addition, the “potency in uterine vasodilation, times less potent than estriol and 17β-estradiol” value in the data set with nonpregnant ewes is on record as 15 to 30 times.

Regarding `C[C@]12CC[C@H]3[C@@H](CCC4=CC(=O)CC[C@@]43C)[C@@H]1CC[C@@H]2O` [testosterone, reference compound], the “relative binding affinity for human SHBG” value in [1] is listed as “in this order, show an increased relative binding affinity”.
